Assay [1] deals with T1, AKAP-Lbc (guanine nucleotide exchange on RhoA) (Homo sapiens, UniProt Q12802).
T1 sequence (Q12802 1994-2333): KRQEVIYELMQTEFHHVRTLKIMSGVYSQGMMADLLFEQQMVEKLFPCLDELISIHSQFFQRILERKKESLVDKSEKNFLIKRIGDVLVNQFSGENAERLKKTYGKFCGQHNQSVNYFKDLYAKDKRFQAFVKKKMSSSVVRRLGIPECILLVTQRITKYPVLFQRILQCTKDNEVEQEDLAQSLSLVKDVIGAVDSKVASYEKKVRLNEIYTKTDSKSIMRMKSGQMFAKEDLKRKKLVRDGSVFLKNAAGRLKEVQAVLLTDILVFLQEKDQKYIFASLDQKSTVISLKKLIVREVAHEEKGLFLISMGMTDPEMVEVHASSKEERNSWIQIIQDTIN
As to the kind of experiment: RhoGEF nucleotide exchange assay (GDP against mGTP on RhoA). Conditions: IC50 (fifty percent inhibition of nucleotide exchange), 15 min.
Method: Following the protocol of the RhoGEF exchange assay Biochem Kit, a nucleotide exchange experiment for AKAP-Lbc and RhoA was established. The fluorescence labelled nucleotide analogues 2′(3′)-O—(N-methylanthraniloyl)-guanosine diphosphate and 2′(3′)-O—(N-methylanthraniloyl)-guanosine triphosphate, hereinafter referred to mGDP and mGTP, were used for tracing the nucleotide exchange.
25 μl depletion buffer (100 mmol/L sodium phosphate, pH 7.4, 5 mmol/L EDTA, 200 mmol/L ammonium sulfate) with an excess of mGDP (5 mmol/L) were added to 200 μg recombinant his6-RhoA (25 μl) and incubated one hour at room temperature. Then, magnesium chloride (MgCl2) was added to a final concentration of 10 mmol/L.
By centrifugation with Vivaspin® 500 concentrator vials (MWCO 5 kDa, 10 min, 10000 rpm) and buffer (100 mmol/L sodium phosphate, pH 7.4, 100 mmol/L NaCl, protease inhibitor [cOmplete, Mini, EDTA-free protease inhibitor cocktaile]) RhoA-mGDP was washed twice and reduced to 100 μl. 1 μmol/L RhoA-mGDP and 0.5 μmol/L AKAP-Lbc DHPH in nucleotide exchange buffer (40 mmol/L Tris pH 7.5; 100 mmol/L NaCl; 20 mmol/L MgCl2, 100 μg/ml BSA) were used for the nucleotide exchange. The fluorescence measurements were performed in a micro plate reader (TECAN Safire) over a period of 15 min, whereby the fluorophore of mGDP was excited at 360 nm and the resulting fluorescence signal was determined at 440 nm.
At a concentration relation of 2 μmol/L protein and 1 μmol/L mGTP, an ideal fluorescence signal-to-noise-ratio was found in the nucleotide exchange buffer (40 mM Tris pH 7.5, 100 mmol/L NaCl, 20 mmol/L MgCl2, 100 μg/ml BSA). The fluorescence signal for mGTP was measured analogous to mGDP (λexc=360 nm; λem=440 nm) in a micro plate reader (TECAN Safire) over a period of 15 min. The experiment was performed in a 384-well plate.

Assay [2] concerns primary neonatal rat cardiomyocytes. As to the kind of experiment: Beat frequency of neonatal cardiomyocytes by Fluo-4 calcium measurement. It counts as cell-based. As to conditions: Fluo-4, from 100 bpm.
Method: The frequency of contraction could be determined in a similar manner with a calcium sensor (Fluo-4). In a laser-scanning microscope, Fluo-4 was excited with an argon laser (488 nm) and the emission signals were detected and collected at a wavelength of 505 nm. The fluorescence intensity represented the intracellular concentration of calcium ions. Usually, the line-scan mode was used for image recording, and the line-scan images were recorded with a speed of 1.54 or 1.92 ms per line along the longitudinal axis of the cell. After the sequential image recording, a two-dimensional image with 512×100 lines or 512×2000 lines was generated and saved for later analysis.
Additional calcium measurements were performed. […] The fluorescence dye Fluo-4 was added after 20 min. Fluo-4 is a calcium sensor, which is used for investigating the calcium increase in cells. In cardiomyocytes the dye serves for examining the contractility. During contraction and relaxation, the calcium concentrations differ in the cytosol of cardiomyocytes. The fluorescence intensity of Fluo-4 increases with an increasing calcium concentration, and a decreasing calcium concentration will cause reduced fluorescence intensity. A frequency could be calculated from the fluo-4 fluorescence oscillation by a time depended analysis, wherein the fluorescence was measured over a period of two hours. The ground state at the moment before application (black), the period 10 to 30 sec after application (dark grey) and 70 to 110 sec after application (light grey) were evaluated (FIG. 5). Application refers to the adding of PE or adrenaline. […] The statistical analysis was performed according to the method of analysis of variance (ANOVA).
The next assay deals with 3T3 mouse fibroblasts. As to the kind of experiment: LPA-induced stress fibre formation, TRITC-phalloidin fluorescence. It counts as cell-based. As to conditions: 3T3 cells, LPA alone (DMSO). The text has this: For the initial analysis, 3T3 cells were used to evaluate the cellular effects of the compounds of the present invention. In these cells changes in the cytoskeleton caused by GTPase activation are well observable, because the cells have a G protein coupled receptor for LPA. A stimulation of 3T3 cells with LPA leads to an activation of RhoA and thereby to the formation of fibrillar actin filaments (F-actin, stress fibres). The participation of AKAP-Lbc as an exchange factor for RhoA within the signal transduction via a G protein of the G−12/13 family was shown.
3T3 mouse fibroblasts were seeded on 30 mm cover slips (in 6 well plates) in a cell density of 2×10^5 cells/well. […]
Following that, the cells were washed with phosphate buffer (Dulbecco's Phosphate-Buffered Saline++) and fixed in 2.5% paraformaldehyde in sodium cacodylate buffer (100 mmol/L sodium cacodylate, 100 mmol/L sucrose, pH 7.4) for 15 min. […] For the microscopic investigations, images were taken with two different fluorescence channels. […]
Without LPA stimulation no stress fibres could be identified after addition of DMSO instead of the compounds of the invention (FIG. 2A, a). […] The quantification of the stress fibre formation were performed with the software package ImageJ by the determination of the overall fluorescence of the TRITC-phalloidin. […]

The subject of assay [3] is primary neonatal rat cardiomyocytes. The experiment in a line: Beat rate of neonatal cardiomyocytes counted by light microscope. Conditions: PE 100 μmol/L for six hours, from 100 bpm. The assay is classed as cell-based. The procedure: For cultivation of primary neonatal rat cardiomyocytes, hearts of two to three days old rats were obtained and quickly stored on ice in ADS buffer (116.4 mM NaCl, 5.4 mM KC, 5.6 mM dextrose, 10.9 mM NaH2PO4, 405.7 μmol/L MgSO4, 20 mM Hepes, pH 7.3). Under sterile conditions, the hearts were cleaned from blood and vessels, cut into small pieces and transferred into falcon tubes. The ADS buffer was exchanged against an enzyme solution (see table below). Within four cycles each with five ml enzyme solution and an enzyme mix comprising collagenase and pancreatin, isolated cells were released from the tissue (12 min at 37° C. in a water bath with approx. 220 rpm).
The supernatant with the isolated cells was collected, transferred in fetal calf serum (FCS, 2.5 ml on ice) and subsequently centrifugated in FCS (100 g for 3 min at 4° C.). The supernatant of the centrifugation was discarded and the pellet was resuspended in 5 ml cold plating medium. After an additional centrifugation, the pellet was resuspended in 15 ml medium, transferred into a dish and incubated for two hours at 37° C. to allow the settling of the fibroblasts. The cardiomyocytes in the supernatant were counted with a Scepter Handheld Automated Cell Counter and transferred in dishes coated with gelatine. On the following day the medium was changed.
The neonatal cardiomyocytes were seeded in 6-well plates with 1.5×10^6 cell per well. The stimulation with 100 μmol/L phenylephrine (PE) was performed for six or twenty four hours at 37° C. Untreated cells served as control. The effect of compound 31413 on the α-adrenergic stimulation of the cardiomyocytes was determined after incubation with the compound for three hours. To do this, the contraction of the cells was counted within a minute and different conditions were compared.
Isolated neonatal cardiomyocytes were used to investigate the relation between AKAP-Lbc induced RhoA activation and the contractility of the heart. After a chronic stimulation of the α1-adreno receptors (AR) with the specific agonist PE for six hours, the beats of the cardiomyocytes were counted over a period of 15 s and a beat rate per minute (bpm) was calculated. An increase of the beat rate of the cardiomyocytes from 100 bpm to 160 beats per minute could be observed. […] The beat rate of neonatal cardiomyocytes was counted with help of a light microscope.

Assay [4] relates to primary neonatal cardiomyocytes (α-sceletal muscle actin mRNA). The experiment in a line: Hypertrophy marker α-actin 1 mRNA by quantitative real-time PCR. Conditions: PE 100 μmol/L, 24 hours. It counts as cell-based, rat. The procedure:
Primary neonatal cardiomyocytes were prepared as described above. The cardiomyocytes were stimulated for 24 or 48 hours with 100 μmol/L phenylephrin (PE) or 10 μmol/L isoproterenol (ISO) in absence or presence of 10 μmol/L or 50 μmol/L of compound 31413.
After 24 hours or 48 hour of stimulation, the medium was removed, and every well was washed with 2 ml phosphate buffered saline and fixed with 200 μl TRIzol. The cells were removed from each well and transferred into a 1.5 ml Eppendorf tube, respectively.
For cell breakdown, 40 μl chloroform was added to each Eppendorf tube. The broken cells were centrifuged for 15 min at 1400 g and 4° C. The supernatant containing RNA/DNA was taken, mixed with 100 μl isopropanol and centrifugated for 20 min at 1500 g and 4° C. The supernatant was discarded and the pellet was resuspended in 500 μL ethanol. The RNA from the pellet was purified by chromatography. The concentration of the RNA was determined by NANODROP.
The quantification of the hypertrophy marker α-sceletal muscle actin (α-actin 1) mRNA was performed by quantitative real-time PCR. First, the RNA was transcribed to a cDNA with a SuperScript™III First-Strand Synthesis SuperMix (Invitrogen) and random hexamer primers. The cDNA was amplified in a PCR reaction in an Applied Biosystem StepOne™ Real-Time PCR System. Glycerinealdehydephosphate dehydrogenase and NTC (no template control) was used as controls. All samples were triplicates. The following primers have been used: […]

With `CCCCc1cc(=O)oc2cc3occ(-c4ccc(OC)cc4)c3cc12` [Compound 31892, 5-butyl-3-(4-methoxyphenyl)furo[3,2-g]chromen-7-one], the midpoint of inhibition in assay [1], the IC50, lay at 78.9 µM. In the case of `CNCC(O)c1ccc(O)c(O)c1` (stereo not shown) [adrenaline, reference compound], the frequency after stimulation in assay [2] came to 200 bpm. Consider `CCCc1cc(=O)oc2cc3occ(-c4ccc(OC)cc4)c3cc12` [Compound 31864, 3-(4-methoxyphenyl)-5-propyl-furo[3,2-g]chromen-7-one], for which the IC50 in assay [1] turned out to be 39.9 µM. Consider “lysophosphatide acid [LPA, reference compound]”, for which the “formation of stress fibres after stimulation” value in the assay with 3T3 mouse fibroblasts is listed as “clear formation of stress fibres”.

Take `CNC[C@H](O)c1cccc(O)c1` [PE, phenylephrine, reference compound]: in assay [3], the “beat rate of the cardiomyocytes after stimulation” value is reported as 160 beats per minute. In addition, the “increase in relative amount of α-actin 1 mRNA” value in assay [4] is “threefold increase”. Besides, in assay [2], the frequency after stimulation was determined as 150 bpm.

Source of the values: patent US20160008339A1, “PSORALEN DERIVATIVES FOR PREVENTING OR TREATING HEART FAILURE OR CARDIAC HYPERTROPHY” (MAX-DELBRUCK-CENTRUM FUR MOLEKULARE MEDIZIN, priority 2012, published 2016).
